In patent US8343930B2, “Combination therapy for the treatment of tumors” (Cancer Advances, Inc., priority 2001, dated 2013):

Key:
a number of cell lines = conditions: Seva et al., 1990; Watson et al., 1991a; cited from earlier work
rat colon tumor DHDK12 = test: In vivo growth of DHDK12 tumors in abdominal wall muscle layer of BDIX rats; conditions: immunization alone (200 μg/ml), 50 day time period; untreated 4.43 g
Method: Cell line. DHDK12 is a rat colonic epithelial tumor cell line (Martin, 1983). The cell line was maintained in RPMI 1640 growth medium (Gibco, Paisley, Scotland) containing 10% fetal calf serum (FCS, Sigma, Poole, UK) in humidified conditions at 37° C. and 5% CO2.
Initiation of tumor growth. DHDK12 cells were suspended in sterile phosphate buffered line (PBS, Oxoid, Hants., UK) at a cell concentration of 2.5×10^7/ml. Rats were anesthetized by a 1 ml intraperitoneal injection of Hypnorm ([…] fenatanyl citrate and 10 mg/ml fluanisone; Jannsen, Berrse, Belgium), Hypnovel ([…] midazolam; Roche, Basel, Switzerland), and sterile distilled water in a 1:1:5 ratio. Following a subcutaneous (s.c.) incision on the right flank, a 200 μl volume of cell suspension was injected into the muscle layer of the abdominal wall and the surgical incision closed by wound clips. Each experimental group was composed of between 6 and 13 animals.
The effects of combined therapies with 5-FU/Leucovorin (12.5-30 mg/kg) and rat anti-G17(1-9)-DT (200 μg/ml) on the growth of the rat colon tumor DHDK12 cell line in the muscle layer of the abdominal wall of BDIX rats were tested by comparison to tumors in control animals as described in the previous Examples. At the end of the therapies the rats were killed, their tumors excised and weighed using standard procedures. […]

[1] = tested on: gastrin-sensitive mouse colon tumor MC26; conditions: MC26-bearing mice; control animals 25 days; cited from earlier work
[2] = tested on: advanced colorectal cancer; conditions: advanced disease (Petrioli et al., 1995); cited from earlier work

**Q.** With `O=C(N[C@@H](Cc1c[nH]c2ccccc12)C(=O)O)c1ccc(Cl)cc1` [Benzotript] as the molecule, how does the “effect on basal and gastrin-stimulated proliferation” value (a number of cell lines) read?
**A.** The value was “inhibited”.

**Q.** With Diphtheria toxoid [DT] as the molecule, how does the median tumor weight (rat colon tumor DHDK12) read?
**A.** Its median tumor weight is 4.7 g.

**Q.** What does the source list for `CCCN(CCC)C(=O)C(CCC(=O)O)NC(=O)c1ccccc1` (centres unmarked) [proglumide]?
**A.** survival of treated animals [1]: 39 days; effect on basal and gastrin-stimulated proliferation (a number of cell lines): inhibited

**Q.** With `O=c1[nH]cc(F)c(=O)[nH]1` [5-FU, 5-fluorouracil] as the molecule, how does the median survival [2] read?
**A.** Its median survival is 7.5 months.
